Laboratory results taken from patent US10131652B2, “Pyrimidinyloxy benzene derivatives as herbicides” (E. I. DU PONT DE NEMOURS AND COMPANY, priority 2014, dated 2018).

How the values were obtained:
Type in all cases: in vivo
[1] = test system: giant foxtail (Setaria faberii); experiment: Test D pre-/postemergence plant response
In short: (§1)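 Test chemicals were formulated in a non-phytotoxic solvent mixture containing surfactant and applied either preemergence to seeds in loam–sand soil or postemergence to plants 2 to 18 cm tall (1- to 4-leaf stage). Response was rated visually against controls after 13 to 15 days, from 0 (none) to 100 (complete control).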

[2] = test system: barnyardgrass (Echinochloa crus-galli); experiment: Test D pre-/postemergence plant response
In short: as §1

[3] = test system: yellow nutsedge (Cyperus esculentus); experiment: Test D pre-/postemergence plant response
In short: as §1

[4] = test system: Italian ryegrass (Lolium multiflorum); experiment: Test D pre-/postemergence plant response
In short: as §1

corn (Zea mays) = experiment: Test D pre-/postemergence plant response
In short: as §1

[5] = test system: waterhemp (common waterhemp, Amaranthus rudis); experiment: Test D pre-/postemergence plant response
In short: as §1

[6] = test system: oilseed rape (Brassica napus); experiment: Test D pre-/postemergence plant response
In short: as §1

[7] = test system: pigweed (Amaranthus retroflexus); experiment: Test D pre-/postemergence plant response
In short: as §1

soybean (Glycine max) = experiment: Test D pre-/postemergence plant response
In short: as §1

[8] = test system: morningglory (Ipomoea coccinea); experiment: Test D pre-/postemergence plant response
In short: as §1

[9] = test system: ragweed (common ragweed, Ambrosia elatior); experiment: Test D pre-/postemergence plant response
In short: as §1

[10] = test system: galium (catchweed bedstraw, Galium aparine); experiment: Test B postemergence plant response
In short: (§2)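 Values are visual control ratings (0 to 100) recorded approximately 10 days after postemergence application to greenhouse-grown plants of 2 to 10 cm, one- to two-leaf stage, each judged against untreated controls.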

[11] = test system: blackgrass (Alopecurus myosuroides); experiment: Test B postemergence plant response
In short: as §2

[12] = test system: chickweed (common chickweed, Stellaria media); experiment: Test D postemergence plant response; conditions: for Plant response rating, Chickweed: scale 0 to 100, 0 no effect, 100 complete control
In short: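 Visual 0–100 rating vs controls (0 = no effect, 100 = complete control), scored 13–15 d after postemergence spray. Plants 1- to 4-leaf stage (2–18 cm), potted in peat/vermiculite mix, kept in greenhouse.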

[13] = Postemergence, 31 g ai/ha, scale 0 to 100 (0 no effect, 100 complete control)
[14] = Postemergence, 62 g ai/ha, scale 0 to 100, 0 no effect, 100 complete control
[15] = Postemergence, 125 g ai/ha, scale 0 to 100, 0 no effect, 100 complete control
[16] = Preemergence, 16 g ai/ha, scale 0 to 100 (0 no effect, 100 complete control)
[17] = Preemergence, 31 g ai/ha, scale 0 to 100 (0 no effect, 100 complete control)
[18] = Preemergence, 62 g ai/ha, scale 0 to 100 (0 no effect, 100 complete control)
[19] = 125 g ai/ha, postemergence, 0 to 100 scale, 0 no effect, 100 complete control
[20] = Postemergence, 500 g ai/ha, 0 to 100 scale (0 no effect, 100 complete control)

N#Cc1cccc(Oc2ncc(Cl)cn2)c1-c1cc(C(F)F)on1 [Compound 180]
5: Plant response rating, Foxtail, Giant [1, 16] | Plant response rating, Barnyardgrass [2, 14] | Plant response rating, Barnyardgrass [2, 15] | Ryegrass, Italian plant response rating [4, 14] | Plant response rating (scale 0 to 100), Corn (corn (Zea mays); Postemergence, 16 g ai/ha) | Corn plant response rating (corn (Zea mays); [13]) | Plant response rating, Corn (corn (Zea mays); [18]) | Plant response rating (scale 0 to 100), Oilseed Rape ([6]; Postemergence, 16 g ai/ha) | Plant response rating, Soybean (soybean (Glycine max); [16]) | Plant response rating, Morningglory [8, 18] | Plant response rating, Ragweed [9, 17]
35: Plant response rating, Barnyardgrass [2, 18] | Ragweed plant response rating [9, 14]
55: Morningglory plant response rating [8, 13] | Plant response rating (scale 0 to 100), Ragweed ([9]; Preemergence, 125 g ai/ha)
15: Plant response rating, Nutsedge, Yellow [3, 15] | Plant response rating, Corn (corn (Zea mays); [15]) | Plant response rating, Ragweed [9, 18]
50: Foxtail, Giant plant response rating [1, 13] | Plant response rating, Ryegrass, Italian [4, 18]
45: Plant response rating, Foxtail, Giant [1, 15] | Plant response rating (scale 0 to 100), Soybean (soybean (Glycine max); Postemergence, 16 g ai/ha)
40: Plant response rating (scale 0 to 100), Waterhemp ([5]; Postemergence, 16 g ai/ha) | Plant response rating, Waterhemp [5, 16] | Plant response rating (scale 0 to 100), Morningglory ([8]; Postemergence, 16 g ai/ha) | Ragweed plant response rating [9, 13]
95: Plant response rating, Waterhemp [5, 17] | Plant response rating, Waterhemp [5, 18] | Plant response rating, Oilseed Rape [6, 17] | Plant response rating, Chickweed ([12]; 125 g ai/ha)
10: Nutsedge, Yellow plant response rating [3, 14] | Plant response rating, Corn (corn (Zea mays); [14])
30: Plant response rating, Foxtail, Giant [1, 14] | Plant response rating (scale 0 to 100), Nutsedge, Yellow ([3]; Preemergence, 125 g ai/ha) | Plant response rating (scale 0 to 100), Corn (corn (Zea mays); Preemergence, 125 g ai/ha) | Plant response rating (scale 0 to 100), Ragweed ([9]; Postemergence, 16 g ai/ha)
60: Plant response rating (scale 0 to 100), Foxtail, Giant ([1]; Postemergence, 16 g ai/ha) | Plant response rating, Foxtail, Giant [1, 17] | Oilseed Rape plant response rating [6, 13] | Soybean plant response rating (soybean (Glycine max); [13]) | Plant response rating, Soybean (soybean (Glycine max); [18]) | Plant response rating (scale 0 to 100), Chickweed ([12]; 16 g ai/ha) | Chickweed plant response rating ([12]; 31 g ai/ha, scale 0 to 100 (0 no effect, 100 complete control))
75: Waterhemp plant response rating [5, 13] | Pigweed plant response rating [7, 13] | Pigweed plant response rating [7, 14]
20: Plant response rating, Ryegrass, Italian [4, 15]
100: Plant response rating (scale 0 to 100), Foxtail, Giant ([1]; Preemergence, 125 g ai/ha) | Plant response rating (scale 0 to 100), Waterhemp ([5]; Preemergence, 125 g ai/ha) | Plant response rating (scale 0 to 100), Oilseed Rape ([6]; Preemergence, 125 g ai/ha) | Plant response rating, Oilseed Rape [6, 18] | Plant response rating (scale 0 to 100), Pigweed ([7]; Preemergence, 125 g ai/ha) | Plant response rating, Pigweed [7, 18] | Plant response rating (scale 0 to 100), Morningglory ([8]; Preemergence, 125 g ai/ha) | Plant response rating, Galium [10, 19] | Plant response rating, Galium [10, 20]
0: Plant response rating (scale 0 to 100), Barnyardgrass ([2]; Postemergence, 16 g ai/ha) | Barnyardgrass plant response rating [2, 13] | Plant response rating, Barnyardgrass [2, 16] | Plant response rating, Barnyardgrass [2, 17] | Plant response rating (scale 0 to 100), Nutsedge, Yellow ([3]; Postemergence, 16 g ai/ha) | Nutsedge, Yellow plant response rating [3, 13] | Plant response rating, Nutsedge, Yellow [3, 16] | Plant response rating, Nutsedge, Yellow [3, 17] | Plant response rating, Nutsedge, Yellow [3, 18] | Plant response rating (scale 0 to 100), Ryegrass, Italian ([4]; Postemergence, 16 g ai/ha) | Ryegrass, Italian plant response rating [4, 13] | Plant response rating, Ryegrass, Italian [4, 16] | Plant response rating, Ryegrass, Italian [4, 17] | Plant response rating, Corn (corn (Zea mays); [16]) | Plant response rating, Corn (corn (Zea mays); [17]) | Plant response rating, Morningglory [8, 16] | Plant response rating, Morningglory [8, 17] | Plant response rating, Ragweed [9, 16]
90: Waterhemp plant response rating [5, 14] | Plant response rating, Oilseed Rape [6, 15] | Morningglory plant response rating [8, 14] | Plant response rating, Morningglory [8, 15] | Plant response rating, Blackgrass [11, 19] | Plant response rating, Blackgrass [11, 20]
85: Plant response rating, Foxtail, Giant [1, 18] | Plant response rating, Soybean (soybean (Glycine max); [15]) | Plant response rating, Chickweed ([12]; 62 g ai/ha)
65: Plant response rating (scale 0 to 100), Ryegrass, Italian ([4]; Preemergence, 125 g ai/ha) | Plant response rating, Ragweed [9, 15]
98: Plant response rating, Waterhemp [5, 15] | Plant response rating, Pigweed [7, 15] | Plant response rating, Pigweed [7, 17]
70: Plant response rating, Oilseed Rape [6, 16] | Plant response rating (scale 0 to 100), Pigweed ([7]; Postemergence, 16 g ai/ha) | Soybean plant response rating (soybean (Glycine max); [14])
25: Plant response rating, Soybean (soybean (Glycine max); [17])
80: Plant response rating (scale 0 to 100), Barnyardgrass ([2]; Preemergence, 125 g ai/ha) | Oilseed Rape plant response rating [6, 14] | Plant response rating, Pigweed [7, 16] | Plant response rating (scale 0 to 100), Soybean (soybean (Glycine max); Preemergence, 125 g ai/ha)
